Holding throughout (format): cell-based
The subject of assay [1] is A2058 (human melanoma cancer cells). Briefly: Anti-proliferative activity on A2058 cell line (WST1 colorimetric test). Particulars: treated for 96 hours, read-out: IC50 on the cell proliferation of the A2058 lines. The protocol:
(§1) By way of example, the effect of a treatment on three human cell lines DU145, LNCaP and A2058 with the compounds of the examples described previously will be studied. The cell lines DU145 and LNCaP (human prostate cancer cells) and A2058 (human melanoma cancer cells) were acquired from the American Tissue Culture Collection (Rockville, Md., USA). The cells placed in 80 μl of Dulbecco's Modified Eagle medium (Gibco-Brl, Cergy-Pontoise, France) completed with 10% foetal calf serum inactivated by heating (Gibco-Brl, Cergy-Pontoise, France), 50000 units/l of penicillin and 50 mg/l streptomycin (Gibco-Brl, Cergy-Pontoise, France), and 2 mM of glutamin (Gibco-Brl, Cergy-Pontoise, France) were seeded on a 96-well plate on day 0. The cells were treated on day 1 for 96 hours with increasing concentrations of each of the compounds to be tested up to 10 μM. At the end of this period, the quantification of the cell proliferation is evaluated by a colorimetric test based on the cleavage of the tetrazolium salt WST1 by mitochondrial dehydrogenases in the viable cells leading to the formation of formazan (Boehringer Mannheim, Meylan, France). These tests are carried out in duplicate with 8 determinations per tested concentration. For each compound to be tested, the values included in the linear part of the sigmoid were retained for linear regression analysis and used in order to estimate the inhibitory concentration IC50. The products are solubilized in dimethylsulphoxide (DMSO) at 10^−2 M and finally used in culture with 0.1% DMSO.
For orientation: Tetrazolium assays rely on reduction of a dye to a coloured formazan, in cell work by metabolically active cells.

Assay [2] has as its system LNCaP (human prostate cancer cells). Description: Anti-proliferative activity on LNCaP cell line (WST1 colorimetric test). Particulars: treated for 96 hours, read-out: IC50 on the cell proliferation of the LNCaP lines. The procedure:
as §1

The test system of assay [3] is DU145 (human prostate cancer cells). Description: Anti-proliferative activity on DU145 cell line (WST1 colorimetric test). Particulars: DU-145, treated for 96 hours, read-out: IC50 on the cell proliferation of the DU145 lines. The procedure: as §1

Counter-ions that a name gives are not always drawn. Like-named read-outs stand apart in the source and are kept apart here. Bounds are passed on as bounds.

As for `N[C@@H](CSSC[C@H](N)C(=O)N1CCn2nc(-c3ccccc3)cc2C1CC1CCCCC1)C(=O)N1CCn2nc(-c3ccccc3)cc2C1CC1CCCCC1` (mixture of isomers) [Example 12, (2R)-3-({(2R)-2-amino-3-[(4RS)-4-(cyclohexylmethyl)-2-phenyl-6,7-dihydropyrazolo[1,5-a]pyrazin-5(4H)-yl]-3-oxopropyl}dithio)-1-[(4RS)-4-(cyclohexylmethyl)-2-phenyl-6,7-dihydropyrazolo[1,5-a]pyrazin-5(4H)-yl]-1-oxopropan-2-amine hydrochloride], the IC50 was at most 0.01 mM in assay [1] (bound given in mM), at most 1 µM in assay [2] and at most 10 µM in assay [3].
As for `N[C@@H](CSSC[C@H](N)C(=O)N1CCn2nc(-c3ccccc3)cc2C1CCc1ccccc1)C(=O)N1CCn2nc(-c3ccccc3)cc2C1CCc1ccccc1` (mixture of isomers) [Example 13, (2R)-3-({(2R)-2-amino-3-oxo-3-[(4RS)-2-phenyl-4-(2-phenylethyl)-6,7-dihydropyrazolo[1,5-a]pyrazin-5(4H)-yl]propyl}dithio)-1-oxo-1-[(4RS)-2-phenyl-4-(2-phenylethyl)-6,7-dihydropyrazolo[1,5-a]pyrazin-5(4H)-yl]propan-2-amine hydrochloride], the figures for the IC50 in assay [1] (bound given in mM), in assay [2] and in assay [3] (unit inferred) were at most 0.01 mM, at most 1 µM and at most 15 µM, respectively.
On to `N[C@@H](CSSC[C@H](N)C(=O)N1CCn2nc(-c3ccc4c(c3)OCO4)cc2C1CCc1ccccc1)C(=O)N1CCn2nc(-c3ccc4c(c3)OCO4)cc2C1CCc1ccccc1` (mixture of isomers) [Example 16, (2R)-3-({(2R)-2-amino-3-[(4RS)-2-(1,3-benzodioxol-5-yl)-4-(2-phenylethyl)-6,7-dihydropyrazolo[1,5-a]pyrazin-5(4H)-yl]-3-oxopropyl}dithio)-1-[(4RS)-2-(1,3-benzodioxol-5-yl)-4-(2-phenylethyl)-6,7-dihydropyrazolo[1,5-a]pyrazin-5(4H)-yl]-1-oxopropan-2-amine hydrochloride], for which the IC50 was at most 0.03 mM in assay [1], at most 10 µM in assay [2] and at most 20 µM in assay [3].
`COc1cc(-c2cc3n(n2)CCN(C(=O)[C@@H](N)CSSC[C@H](N)C(=O)N2CCn4nc(-c5cc(OC)c(OC)c(OC)c5)cc4C2CCc2ccccc2)C3CCc2ccccc2)cc(OC)c1OC` (mixture of isomers) [Example 17, (2R)-3-({(2R)-2-amino-3-oxo-3-[(4RS)-4-(2-phenylethyl)-2-(3,4,5-trimethoxyphenyl)-6,7-dihydropyrazolo[1,5-a]pyrazin-5(4H)-yl]propyl}dithio)-1-oxo-1-[(4RS)-4-(2-phenylethyl)-2-(3,4,5-trimethoxyphenyl)-6,7-dihydropyrazolo[1,5-a]pyrazin-5(4H)-yl]propan-2-amine hydrochloride]: the IC50 in assay [1] is at most 0.02 mM; in assay [2], at most 10 µM; in assay [3] (unit inferred), at most 15 µM.
For `N[C@@H](CSSC[C@H](N)C(=O)N1CCn2nc(-c3cccs3)cc2C1CCc1ccccc1)C(=O)N1CCn2nc(-c3cccs3)cc2C1CCc1ccccc1` (mixture of isomers) [Example 18, (2R)-3-({(2R)-2-amino-3-oxo-3-[(4RS)-4-(2-phenylethyl)-2-(2-thienyl)-6,7-dihydropyrazolo[1,5-a]pyrazin-5(4H)-yl]propyl}dithio)-1-oxo-1-[(4RS)-4-(2-phenylethyl)-2-(2-thienyl)-6,7-dihydropyrazolo[1,5-a]pyrazin-5(4H)-yl]propan-2-amine hydrochloride], in that order: at most 0.02 mM, at most 5 µM and at most 15 µM.
Take `N[C@@H](CSSC[C@H](N)C(=O)N1CCn2nc(-c3ccco3)cc2C1CCc1ccccc1)C(=O)N1CCn2nc(-c3ccco3)cc2C1CCc1ccccc1` (mixture of isomers) [Example 19, (2R)-3-({(2R)-2-amino-3-[(4RS)-2-(2-furyl)-4-(2-phenylethyl)-6,7-dihydropyrazolo[1,5-a]pyrazin-5(4H)-yl]-3-oxopropyl}dithio)-1-[(4RS)-2-(2-furyl)-4-(2-phenylethyl)-6,7-dihydropyrazolo[1,5-a]pyrazin-5(4H)-yl]-1-oxopropan-2-amine hydrochloride]: the IC50 was at most 0.02 mM in assay [1], at most 5 µM in assay [2] and at most 15 µM in assay [3] (unit inferred).
In the case of `CCCCCC1c2cc(-c3ccccc3)nn2CCN1C(=O)[C@@H](N)CSSC[C@H](N)C(=O)N1CCn2nc(-c3ccccc3)cc2C1CCCCC` (mixture of isomers) [Example 20, (2R)-3-({(2R)-2-amino-3-oxo-3-[(4RS)-4-pentyl-2-phenyl-6,7-dihydropyrazolo[1,5-a]pyrazin-5(4H)-yl]propyl}dithio)-1-oxo-1-[(4RS)-4-pentyl-2-phenyl-6,7-dihydropyrazolo[1,5-a]pyrazin-5(4H)-yl]propan-2-amine hydrochloride], the IC50 in assay [1] (bound given in mM) is at most 0.01 mM; in assay [2], at most 10 µM; in assay [3] (unit inferred), at most 15 µM.
As for `CCCCC1c2cc(-c3ccccc3)nn2CCN1C(=O)[C@@H](N)CSSC[C@H](N)C(=O)N1CCn2nc(-c3ccccc3)cc2C1CCCC` (mixture of isomers) [Example 21, (2R)-3-({(2R)-2-amino-3-[(4RS)-4-butyl-2-phenyl-6,7-dihydropyrazolo[1,5-a]pyrazin-5(4H)-yl]-3-oxopropyl}dithio)-1-[(4RS)-4-butyl-2-phenyl-6,7-dihydropyrazolo[1,5-a]pyrazin-5(4H)-yl]-1-oxopropan-2-amine hydrochloride], the IC50 in assay [1] (bound given in mM) is at most 0.01 mM; in assay [2] it was at most 5 µM; in assay [3], at most 20 µM.
For `N[C@@H](CSSC[C@H](N)C(=O)N1CCn2nc(-c3ccc(Cl)cc3Cl)cc2C1CCc1ccccc1)C(=O)N1CCn2nc(-c3ccc(Cl)cc3Cl)cc2C1CCc1ccccc1` (mixture of isomers) [Example 22, (2R)-3-({(2R)-2-amino-3-[(4RS)-2-(2,4-dichlorophenyl)-4-(2-phenylethyl)-6,7-dihydropyrazolo[1,5-a]pyrazin-5(4H)-yl]-3-oxopropyl}dithio)-1-[(4RS)-2-(2,4-dichlorophenyl)-4-(2-phenylethyl)-6,7-dihydropyrazolo[1,5-a]pyrazin-5(4H)-yl]-1-oxopropan-2-amine hydrochloride], in that order: at most 0.01 mM, at most 1 µM and at most 20 µM.
As for `N[C@@H](CSSC[C@H](N)C(=O)N1CCn2nc(-c3ccccc3)cc2[C@@H]1CC1CCCCC1)C(=O)N1CCn2nc(-c3ccccc3)cc2[C@@H]1CC1CCCCC1` [Example 24, (2R)-3-({(2R)-2-amino-3-[(4S)-4-(cyclohexylmethyl)-2-phenyl-6,7-dihydropyrazolo[1,5-a]pyrazin-5(4H)-yl]-3-oxopropyl}dithio)-1-[(4S)-4-(cyclohexylmethyl)-2-phenyl-6,7-dihydropyrazolo[1,5-a]pyrazin-5(4H)-yl]-1-oxopropan-2-amine hydrochloride], the IC50 in assay [1] (bound given in mM) is at most 0.01 mM; in assay [2], at most 1 µM; in assay [3] (unit inferred) it was at most 15 µM.

For the origin of these results see patent US20100222332A1, “PYRAZOLO-PYRAZINES DERIVATIVES USED AS G PROTEIN INHIBITORS” (Ipsen Pharma S.A.S., priority 2007, published 2010).
